Measurements as given in US12059482B2, “Activity-based probe compounds, compositions, and methods of use” (THE BOARD OF TRUSTEES OF THE LELAND STANFORD JUNIOR …, priority 2016, dated 2024).

Test system: cysteine cathepsins
Test: inhibition of probe labeling in living RAW cells by JPM-OEt pretreatment
Assay type: cell-based, mouse
Conditions: JPM-OEt pre-treatment (50 μM, 1 hr)
Protocol: RAW cells were cultured in DMEM (GIBCO) supplemented with 10% fetal bovine serum (FBS; GIBCO), 100 units/mL penicillin and 100 μg/mL streptomycin (GIBCO). 4T1 cells (ATCC) were cultured in RPMI (GIBCO) supplemented with 10% fetal bovine serum (FBS; GIBCO), 100 units/mL penicillin and 100 μg/mL streptomycin (GIBCO). All cells were cultured in a 5% CO2 humidified incubator at 37° C. For intact cell labeling, cells were exposed to probe (500× in DMSO) in culture media and incubated for 2 hr at 37° C., unless stated otherwise. Where indicated the cells were preincubated for 1 hr with the inhibitor JPM-OEt (500× in DMSO) or exposed to mouse serum (1 μl probe stock solution in DMSO added to 9 μl serum) for 4 hr before addition to the cells. After labeling, the cells were washed with PBS and resuspended in hypotonic lysis buffer (50 mM PIPES pH 7.4, 10 mM KCl, 5 mM MgCl2, 2 mM EDTA, 4 mM DTT, and 1% NP-40) and put on ice for 15 min, centrifuged at 4° C. for 30 min and supernatants were collected, and protein concentration was determined using a BCA kit (pierce). […] Labeling intensities were quantified using Image J software. […] After 15 min on ice and centrifugation at 4° C. for 30 min the supernatants were collected, and protein concentration was determined using a BCA kit (pierce). […] 4× SDS-sample buffer was added and the protein was denatured for 3 min at 100° C. and analyzed as described above. […]

JPM-OEt
blocking of probe labeling: more than 90%
